What was measured:
[1] = target: LIMK2 (Homo sapiens, UniProt P53671); assay: NanoBRET tracer displacement, HEK293T; type: cell-based
[2] = target: LIMK1 (Homo sapiens, UniProt P53667); assay: NanoBRET tracer displacement, HEK293T; type: cell-based; settings: intact cells; […] °C, […] h; competitive with tracer
[3] = target: MST4 (full-length, NanoLuc fusion) (Homo sapiens, UniProt Q9P289); assay: NanoBRET tracer displacement, HEK293T; type: cell-based
[4] = target: MST3 (full-length, NanoLuc fusion) (Homo sapiens, UniProt Q9Y6E0); assay: cell-based
[5] = target: ACK1 (Homo sapiens, UniProt Q07912); settings: 1 µM; inhibitor
[6] = target: ACVR1 (Homo sapiens, UniProt Q04771); settings: 1 µM; inhibitor
[7] = target: CDC42BPA (Homo sapiens, UniProt Q5VT25); settings: 1 µM; inhibitor
[8] = target: CDK9/CycT1 (Homo sapiens, UniProt P50750); settings: 1 µM; inhibitor
[9] = target: CLK2 (Homo sapiens, UniProt P49760); settings: 1 µM; inhibitor
[10] = target: DYRK1A (Homo sapiens, UniProt Q13627); settings: 1 µM; inhibitor
[11] = target: DYRK3 (Homo sapiens, UniProt O43781); settings: 1 µM; inhibitor
[12] = target: EIF2AK3 (Homo sapiens, UniProt Q9NZJ5); settings: 1 µM; inhibitor
[13] = target: ERBB2 (Homo sapiens, UniProt P04626); settings: 1 µM; inhibitor
[14] = target: FLT3 (Homo sapiens, UniProt P36888); settings: 1 µM; inhibitor
[15] = target: GSK3B (Homo sapiens, UniProt P49841); settings: 1 µM; inhibitor
[16] = target: HCK (Homo sapiens, UniProt P08631); settings: 1 µM; inhibitor
[17] = target: HIPK2 (Homo sapiens, UniProt Q9H2X6); settings: 1 µM; inhibitor
[18] = target: MYLK (Homo sapiens, UniProt Q15746); settings: 1 µM; inhibitor
[19] = target: NEK1 (Homo sapiens, UniProt Q96PY6); settings: 1 µM; inhibitor
[20] = target: PIM2 (Homo sapiens, UniProt Q9P1W9); settings: 1 µM; inhibitor
[21] = target: PKCa (Homo sapiens, UniProt P17252); settings: 1 µM; inhibitor
[22] = target: PKCmu (Homo sapiens, UniProt Q15139); settings: 1 µM; inhibitor
[23] = target: PKMzeta (Homo sapiens, UniProt Q05513); settings: 1 µM; inhibitor
[24] = target: RET (Homo sapiens, UniProt P07949); settings: 1 µM; inhibitor
Chain of RET (P07949 whole entry): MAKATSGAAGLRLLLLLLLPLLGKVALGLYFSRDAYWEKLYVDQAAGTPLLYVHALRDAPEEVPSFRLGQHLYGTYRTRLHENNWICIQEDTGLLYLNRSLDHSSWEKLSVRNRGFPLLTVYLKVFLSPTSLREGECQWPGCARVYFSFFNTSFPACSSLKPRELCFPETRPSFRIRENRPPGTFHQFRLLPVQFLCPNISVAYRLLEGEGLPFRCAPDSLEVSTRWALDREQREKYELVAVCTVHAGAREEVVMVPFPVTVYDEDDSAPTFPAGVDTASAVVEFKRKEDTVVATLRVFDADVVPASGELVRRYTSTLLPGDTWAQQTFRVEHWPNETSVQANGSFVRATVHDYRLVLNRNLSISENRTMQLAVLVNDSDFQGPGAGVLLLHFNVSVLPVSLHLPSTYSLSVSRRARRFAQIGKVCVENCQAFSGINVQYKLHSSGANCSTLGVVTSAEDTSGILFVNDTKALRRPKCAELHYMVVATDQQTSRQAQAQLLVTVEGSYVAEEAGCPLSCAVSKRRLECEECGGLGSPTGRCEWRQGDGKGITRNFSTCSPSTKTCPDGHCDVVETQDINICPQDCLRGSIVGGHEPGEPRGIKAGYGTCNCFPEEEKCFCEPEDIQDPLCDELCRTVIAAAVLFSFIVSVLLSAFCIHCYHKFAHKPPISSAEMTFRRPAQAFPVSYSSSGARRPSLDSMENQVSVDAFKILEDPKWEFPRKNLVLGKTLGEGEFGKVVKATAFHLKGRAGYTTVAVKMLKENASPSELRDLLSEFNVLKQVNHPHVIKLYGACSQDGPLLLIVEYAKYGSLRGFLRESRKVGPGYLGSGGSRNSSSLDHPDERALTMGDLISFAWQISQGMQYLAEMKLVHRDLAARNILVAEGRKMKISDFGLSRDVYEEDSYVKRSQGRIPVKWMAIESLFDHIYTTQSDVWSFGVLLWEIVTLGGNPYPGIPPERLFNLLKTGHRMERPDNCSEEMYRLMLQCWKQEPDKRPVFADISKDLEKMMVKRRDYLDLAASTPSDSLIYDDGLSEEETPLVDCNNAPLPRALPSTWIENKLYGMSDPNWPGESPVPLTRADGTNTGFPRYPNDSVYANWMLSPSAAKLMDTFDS

Chain of PIM2 (Q9P1W9 whole entry): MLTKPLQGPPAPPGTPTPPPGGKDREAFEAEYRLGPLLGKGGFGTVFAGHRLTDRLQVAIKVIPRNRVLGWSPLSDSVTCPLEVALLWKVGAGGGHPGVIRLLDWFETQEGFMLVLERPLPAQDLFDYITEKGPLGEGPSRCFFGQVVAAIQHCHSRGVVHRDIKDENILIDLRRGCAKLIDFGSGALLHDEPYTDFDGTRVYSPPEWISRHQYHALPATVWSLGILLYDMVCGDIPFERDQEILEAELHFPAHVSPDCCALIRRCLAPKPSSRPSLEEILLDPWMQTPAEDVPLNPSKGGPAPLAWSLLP
Chain of ACVR1 (Q04771 whole entry): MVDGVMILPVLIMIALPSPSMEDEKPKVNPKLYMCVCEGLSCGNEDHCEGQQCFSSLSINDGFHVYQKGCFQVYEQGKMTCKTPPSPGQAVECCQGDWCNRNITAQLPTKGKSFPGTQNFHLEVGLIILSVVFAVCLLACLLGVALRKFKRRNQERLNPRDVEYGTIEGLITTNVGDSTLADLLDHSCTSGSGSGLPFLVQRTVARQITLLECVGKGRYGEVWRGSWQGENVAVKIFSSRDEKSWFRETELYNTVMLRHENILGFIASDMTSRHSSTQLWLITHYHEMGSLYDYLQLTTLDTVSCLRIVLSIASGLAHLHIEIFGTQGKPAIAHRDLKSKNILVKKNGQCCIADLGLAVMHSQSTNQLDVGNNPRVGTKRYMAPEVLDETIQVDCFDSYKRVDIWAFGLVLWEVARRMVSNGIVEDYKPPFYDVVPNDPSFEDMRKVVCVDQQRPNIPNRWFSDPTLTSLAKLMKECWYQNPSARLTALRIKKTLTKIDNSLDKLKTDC
Chain of HCK (P08631 whole entry): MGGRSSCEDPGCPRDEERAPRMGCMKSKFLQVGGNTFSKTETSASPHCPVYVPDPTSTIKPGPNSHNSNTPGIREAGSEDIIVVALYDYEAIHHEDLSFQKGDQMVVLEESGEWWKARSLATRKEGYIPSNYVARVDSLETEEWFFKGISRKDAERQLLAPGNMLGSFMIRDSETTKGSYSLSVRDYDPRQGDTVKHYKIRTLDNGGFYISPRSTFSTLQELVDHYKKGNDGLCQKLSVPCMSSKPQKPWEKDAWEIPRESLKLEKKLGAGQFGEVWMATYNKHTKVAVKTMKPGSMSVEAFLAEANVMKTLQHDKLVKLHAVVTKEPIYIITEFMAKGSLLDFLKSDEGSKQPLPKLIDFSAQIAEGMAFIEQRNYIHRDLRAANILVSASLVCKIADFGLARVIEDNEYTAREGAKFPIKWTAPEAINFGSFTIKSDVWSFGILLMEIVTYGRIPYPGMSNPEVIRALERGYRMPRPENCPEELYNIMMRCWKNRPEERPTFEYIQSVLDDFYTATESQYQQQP
Chain of CLK2 (P49760 whole entry): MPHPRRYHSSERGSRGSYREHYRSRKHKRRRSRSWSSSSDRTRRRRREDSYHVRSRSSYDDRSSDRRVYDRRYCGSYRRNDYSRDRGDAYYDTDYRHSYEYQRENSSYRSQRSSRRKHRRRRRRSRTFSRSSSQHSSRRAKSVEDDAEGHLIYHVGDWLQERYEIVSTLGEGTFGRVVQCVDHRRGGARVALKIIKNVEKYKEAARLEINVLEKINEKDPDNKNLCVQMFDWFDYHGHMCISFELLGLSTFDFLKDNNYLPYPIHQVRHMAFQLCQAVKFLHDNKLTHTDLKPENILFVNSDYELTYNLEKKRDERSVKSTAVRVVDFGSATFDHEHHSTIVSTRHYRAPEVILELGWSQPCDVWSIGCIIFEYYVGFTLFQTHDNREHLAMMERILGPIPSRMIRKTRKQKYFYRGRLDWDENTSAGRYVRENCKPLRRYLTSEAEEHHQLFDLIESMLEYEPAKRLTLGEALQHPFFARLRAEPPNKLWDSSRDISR
Chain of ERBB2 (P04626 whole entry): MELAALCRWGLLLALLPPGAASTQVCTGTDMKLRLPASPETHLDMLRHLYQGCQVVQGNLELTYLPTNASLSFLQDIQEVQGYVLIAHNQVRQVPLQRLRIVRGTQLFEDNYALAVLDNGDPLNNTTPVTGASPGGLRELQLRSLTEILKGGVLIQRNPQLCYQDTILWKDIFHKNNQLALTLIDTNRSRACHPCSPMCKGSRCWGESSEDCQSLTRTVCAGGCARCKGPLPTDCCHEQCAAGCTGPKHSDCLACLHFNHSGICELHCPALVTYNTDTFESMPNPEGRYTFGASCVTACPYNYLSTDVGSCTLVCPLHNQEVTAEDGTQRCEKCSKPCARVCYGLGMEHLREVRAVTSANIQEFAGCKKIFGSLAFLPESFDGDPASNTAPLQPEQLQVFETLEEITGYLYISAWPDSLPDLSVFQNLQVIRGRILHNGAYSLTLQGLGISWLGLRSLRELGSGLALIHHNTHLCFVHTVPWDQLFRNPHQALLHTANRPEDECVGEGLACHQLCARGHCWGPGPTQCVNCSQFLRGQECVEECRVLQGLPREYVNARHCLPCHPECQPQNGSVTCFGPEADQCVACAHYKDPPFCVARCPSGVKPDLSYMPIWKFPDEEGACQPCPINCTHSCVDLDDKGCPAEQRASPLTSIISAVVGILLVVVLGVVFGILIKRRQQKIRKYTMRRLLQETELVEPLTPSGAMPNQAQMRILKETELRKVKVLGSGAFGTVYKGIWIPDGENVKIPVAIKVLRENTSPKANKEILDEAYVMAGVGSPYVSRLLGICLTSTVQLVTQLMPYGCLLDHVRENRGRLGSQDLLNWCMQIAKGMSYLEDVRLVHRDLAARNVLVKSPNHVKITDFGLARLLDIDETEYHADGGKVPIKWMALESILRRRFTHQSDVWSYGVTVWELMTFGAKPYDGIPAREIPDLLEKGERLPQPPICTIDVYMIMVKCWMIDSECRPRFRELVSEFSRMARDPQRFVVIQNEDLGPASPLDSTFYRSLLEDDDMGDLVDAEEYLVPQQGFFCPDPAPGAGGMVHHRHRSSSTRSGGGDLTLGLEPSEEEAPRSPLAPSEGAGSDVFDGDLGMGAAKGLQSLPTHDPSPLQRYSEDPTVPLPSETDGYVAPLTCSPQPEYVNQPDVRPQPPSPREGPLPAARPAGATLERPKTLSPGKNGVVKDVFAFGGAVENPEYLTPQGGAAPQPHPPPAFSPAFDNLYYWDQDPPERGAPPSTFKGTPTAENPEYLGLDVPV
Chain of PKMzeta (Q05513 whole entry): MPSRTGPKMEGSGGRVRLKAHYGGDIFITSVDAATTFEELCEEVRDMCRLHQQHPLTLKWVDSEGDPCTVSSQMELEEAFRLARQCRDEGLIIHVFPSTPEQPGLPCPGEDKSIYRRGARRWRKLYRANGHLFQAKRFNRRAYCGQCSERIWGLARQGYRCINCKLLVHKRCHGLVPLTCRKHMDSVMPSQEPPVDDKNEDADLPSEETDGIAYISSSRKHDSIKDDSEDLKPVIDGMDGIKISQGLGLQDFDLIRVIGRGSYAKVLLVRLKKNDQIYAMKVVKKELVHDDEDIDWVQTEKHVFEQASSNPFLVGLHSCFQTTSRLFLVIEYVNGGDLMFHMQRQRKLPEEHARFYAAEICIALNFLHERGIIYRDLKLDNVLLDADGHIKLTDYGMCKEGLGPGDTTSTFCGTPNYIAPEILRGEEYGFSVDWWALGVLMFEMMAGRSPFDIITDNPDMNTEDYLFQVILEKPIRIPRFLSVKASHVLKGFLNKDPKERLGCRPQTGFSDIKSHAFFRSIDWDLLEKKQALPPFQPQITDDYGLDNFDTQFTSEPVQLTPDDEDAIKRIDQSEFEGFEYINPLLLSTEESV

EC50 [1]: 1400 nM | EC50 [2]: 5670 ± 1020 nM | EC50 [3]: 1400 nM | EC50 [4]: 106 nM | 21c Remaining activity, percent of control [%] [5]: 79.8% | 21c Remaining activity, percent of control [%] [6]: 81.0% | 21c Remaining activity, percent of control [%] [7]: 107.0% | 21c Remaining activity, percent of control [%] [8]: 85.7% | 21c Remaining activity, percent of control [%] [9]: 64.6% | 21c Remaining activity, percent of control [%] [10]: 82.2% | 21c Remaining activity, percent of control [%] [11]: 96.4% | 21c Remaining activity, percent of control [%] [12]: 87.8% | 21c Remaining activity, percent of control [%] [13]: 94.1% | 21c Remaining activity, percent of control [%] [14]: 103.4% | 21c Remaining activity, percent of control [%] [15]: 81.4% | 21c Remaining activity, percent of control [%] [16]: 94.0% | 21c Remaining activity, percent of control [%] [17]: 74.8% | 21c Remaining activity, percent of control [%] [18]: 68.9% | 21c Remaining activity, percent of control [%] [19]: 79.1% | 21c Remaining activity, percent of control [%] [20]: 103.1% | 21c Remaining activity, percent of control [%] [21]: 107.7% | 21c Remaining activity, percent of control [%] [22]: 96.1% | 21c Remaining activity, percent of control [%] [23]: 96.2% | 21c Remaining activity, percent of control [%] [24]: 122.5%
SMILES: O=C1NCCCCCNc2nc(c3ccccc3n2)Nc2cc1[nH]n2 [21c, (Z)-3^1H-2,5,11-triaza-1(4,2)-quinazolina-3(3,5)-pyrazolacycloundecaphan-4-one]

Reference: doi:10.1101/2023.10.20.563248v1 (biorxiv, 2023)
